Source: ChEMBL document CHEMBL1124229, “Spiro hydantoin aldose reductase inhibitors” (J Med Chem, 1988)
One block for each compound: values may come before it.

Key:
[1] = organism: Rattus norvegicus; assay: Ability to cause 50% reduction in sorbitol levels of sciatic nerve of streptozotocinized rats was determined; value ranges from 2.5-5; assay type: functional
[2] = biological target: T1, Aldo-keto reductase family 1 member B1 (Bos taurus, UniProt P16116); assay: In vitro inhibitory activity towards partially purified calf lens aldose reductase; value ranges from 10E-6 - 10E-7
[3] = biological target: T1, Aldo-keto reductase family 1 member B1; assay: In vitro inhibition of partially purified calf lens aldose reductase
[4] = organism: Rattus norvegicus; assay: Ability to cause 50% reduction in sorbitol levels of sciatic nerve of streptozotocinized rats was determined; value ranges from 0.25-0.75; assay type: functional
[5] = organism: Rattus norvegicus; assay: 50% reduction in sorbitol accumulation in isolated sciatic nerves incubated in the presence of high glucose concentration; assay type: functional; details: Sciatic nerve
[6] = organism: Rattus norvegicus; assay: Dose causing 50% reduction in sorbitol accumulation in sciatic nerves of streptozotocinized rats, (tid)
[7] = biological target: T1, Aldo-keto reductase family 1 member B1; assay: In vitro inhibition of partially purified calf lens aldose reductase; value ranges from 10E-5 to 10E-6
[8] = organism: Rattus norvegicus; assay: Ability to cause 50% reduction in sorbitol levels of sciatic nerve of streptozotocinized rats was determined; value ranges from 250-500; assay type: functional
[9] = pKa in DMF/H2O was measured; assay type: physicochemical
[10] = biological target: T1, Aldo-keto reductase family 1 member B1; assay: Inhibition of partially purified calf lens aldose reductase; value ranges from 10E-4 to 10e-5 M
[11] = organism: Rattus norvegicus; assay: Ability to cause 50% reduction in sorbitol levels of sciatic nerve of streptozotocinized rats was determined; value ranges from 10-25; assay type: functional
[12] = organism: Rattus norvegicus; assay: Ability to cause 50% reduction in sorbitol levels of sciatic nerve of streptozotocinized rats was determined; assay type: functional; details: Rattus norvegicus, Sciatic nerve; read-out: ED50
[13] = biological target: Aldo-keto reductase family 1 member B1 (Homo sapiens, UniProt P15121); assay: In vitro inhibitory activity towards partially purified human placenta aldose reductase
[14] = biological target: T1, Aldo-keto reductase family 1 member B1; assay: In vitro inhibitory activity towards partially purified calf lens aldose reductase; value ranges from 10E-4 - 10E-6
[15] = organism: Rattus norvegicus; assay: Ability to cause 50% reduction in sorbitol levels of sciatic nerve of streptozotocinized rats was determined; value ranges from 1.5-5; assay type: functional
[16] = biological target: Aldo-keto reductase family 1 member B1 (Rattus norvegicus, UniProt P07943); assay: In vitro inhibitory activity towards partially purified rat lens aldose reductase
[17] = organism: Rattus norvegicus; assay: Ability to cause 50% reduction in sorbitol levels of sciatic nerve of streptozotocinized rats was determined; value ranges from 1.5-10; assay type: functional
[18] = organism: Rattus norvegicus; assay: Ability to cause 50% reduction in sorbitol levels of sciatic nerve of streptozotocinized rats was determined; value ranges from 25-100; assay type: functional
[19] = organism: Rattus norvegicus; assay: Ability to cause 50% reduction in sorbitol levels of sciatic nerve of streptozotocinized rats was determined; value ranges from 5-10; assay type: functional
[20] = organism: Rattus norvegicus; assay: 50% reduction in sorbitol accumulation in isolated sciatic nerves incubated in the presence of high glucose concentration; value ranges from 10E-2 - 10E-3; assay type: functional; details: Sciatic nerve
[21] = biological target: T1, Aldo-keto reductase family 1 member B1; assay: In vitro inhibitory activity towards partially purified calf lens aldose reductase; value ranges from 10E-4- 10E-5

Structure (SMILES): COc1ccc(F)c2c1CCCC21NC(=O)NC1=O (configuration not stated)
IC50 [3]: > 100 µM
ED50 [4]: > 25 mg/kg

Structure (SMILES): O=C(O)CN1C(=O)c2cccc3cccc(c23)C1=O [ALRESTATIN]
IC50 [5]: 1000 µM
ED50 [6]: 0.001 M/kg
IC50 [7]: 10 µM
ED50 [8]: 250 mg/kg
pKa [9]: 4.8

Structure (SMILES): CN1C(=O)NC(=O)[C@]12CCOc1ccc(F)cc12
IC50 [13]: 100 µM
ED50 [12]: < 10 mg/kg

Structure (SMILES): COc1ccc2c(c1)C1(CCC2)NC(=O)NC1=O (configuration not stated)
IC50 [3]: 100 µM
ED50 [11]: 10 mg/kg

Structure (SMILES): O=C(O)C1CCOc2ccc(F)cc21 (configuration not stated)
IC50 [14]: 100 µM
ED50 [12]: > 25 mg/kg

Structure (SMILES): CN1C(=O)N[C@]2(CCOc3ccc(F)cc32)C1=O
IC50 [13]: > 100 µM
ED50 [12]: < 10 mg/kg

Structure (SMILES): C[C@@H]1O[C@@H](Oc2c(-c3ccc(O)c(O)c3)oc3cc(O)cc(O)c3c2=O)[C@H](O)[C@H](O)[C@H]1O [QUERCITRIN]
IC50 [7]: 10 µM
IC50 [16]: ~0.1 µM
ED50 [12]: > 40 mg/kg

Structure (SMILES): CN1C(=O)N(C)[C@@]2(CCOc3ccc(F)cc32)C1=O
IC50 [13]: > 100 µM
ED50 [12]: < 10 mg/kg

Structure (SMILES): O=c1cnn(Cc2ccccc2)c(=O)[nH]1
IC50 [3]: 10 µM
ED50 [18]: 25 mg/kg

Structure (SMILES): O=C(O)C1CCOc2ccc(Cl)cc21 (configuration not stated)
ED50 [6]: >0.0001 M/kg
IC50 [7]: 10 µM
IC50 [20]: 10000 µM
pKa [9]: 4.9
ED50 [12]: > 25 mg/kg

Structure (SMILES): O=C1NC(=O)C(N2C(=O)c3cccc4cccc(c34)C2=O)N1 (configuration not stated)
IC50 [5]: ~10 µM
IC50 [13]: 8 µM
pKa [9]: 9.5

Second part, led by results:

IC50 [2]: 1 µM
Structure (SMILES): O=C1NC(=O)C2(CCn3c(=O)ccc4cccc2c43)N1 (configuration not stated)
ED50 [1]: 2.5 mg/kg

IC50 [10]: 100 µM
Structure (SMILES): O=C1NC(=O)C2(CCCc3ccccc32)N1 (configuration not stated)
ED50 [11]: 10 mg/kg

IC50 [10]: 100 µM
Structure (SMILES): O=C1NC(=O)C2(CCc3ccccc32)N1 (configuration not stated)
ED50 [12]: 5 mg/kg
ED50 [11]: 5 mg/kg

IC50 [3]: < 0.1 µM
Structure (SMILES): O=C1NC(=O)C2(CCOc3c2cc(Cl)c2ccccc32)N1 (configuration not stated)
ED50 [15]: 1.5 mg/kg

IC50 [2]: 1 µM
Structure (SMILES): O=C1NC(=O)C2(CCOc3c2ccc2ncccc32)N1 (configuration not stated)
ED50 [17]: 1.5 mg/kg

IC50 [3]: 10 µM
Structure (SMILES): O=C1NC(=O)C2(CCSc3ccccc32)N1 (configuration not stated)
ED50 [19]: 5 mg/kg

IC50 [21]: 100 µM
Structure (SMILES): COc1ccc2c(c1)CCCC21NC(=O)NC1=O (configuration not stated)
ED50 [12]: > 25 mg/kg

IC50 [3]: 0.1 µM
Structure (SMILES): O=C1NC(=O)C2(CCOc3ccc(Cl)cc32)N1 (configuration not stated)
ED50 [4]: 0.25 mg/kg
